Drawing on patent publication US10487071B2, “Bis-triazole compounds with anti-biofilm and anti-corrosion properties” (Université de Toulon, priority 2015, dated 2019), this text covers activity, EC50 and IE % for twelve compounds.

The test system of test [1] is Pseudoalteromonas lipolytica (TC8). Description: Anti-adhesion test, strain TC8. The class given is cell-based. As to conditions: Pseudoalteromonas lipolytica; for activity at 200 µM: 15 h, read-out: % of adhesion at 200 μM, TC8; for EC50: read-out: EC50 (effective concentration to inhibit 50% of the adhesion), TC8. The method, then:
(§1) The anti-adhesion bioassays and toxicity tests are adapted from those disclosed in M. Camps, J.-F. Briand, L. Guentas-Dombrowsky, G. Culioli, A. Bazire and Y. Blache, Mar. Poll.
(§2) Bacterial strains were grown on Väätänen nine-salts solution (VNSS). When the stationary phase was reached, the bacterial suspension was centrifuged. Cells were then diluted in sterile artificial sea water (ASW) and introduced in microtiter plates (sterile black PS; Nunc, Fisher Scientific, France) with the tested compound (at eight concentrations in three replicates) in the presence of three controls: (i) non-specific staining control, (ii) adhesion control, and (iii) positive control. The maximum percentage of solvent (DMSO 2%) used to dilute the tested compound was also tested in triplicate as additional control. After incubation during an optimized adhesion time (moderately 15 h), non-adhered bacteria were eliminated and adhered cells were quantified after SYTO 61 (1 μM) staining. A percentage of inhibition was calculated per well. A sigmoid dose-response curve was obtained by plotting the percentage of inhibition as a function of the log of tested compound concentration, after mean (n=3) and standard deviation (SD) calculation per triplicate for each concentration. EC50 values were then calculated for each compound.

Test [2] deals with Paracoccus sp. (4M6). Description: Anti-adhesion test, strain 4M6. It is filed as cell-based. The note with it: Paracoccus; for activity at 200 µM: 15 h, read-out: % of adhesion at 200 μM, 4M6; for EC50: read-out: EC50 (effective concentration to inhibit 50% of the adhesion), 4M6. The method, then:
as §1, §2

The subject of test [3] is Polaribacter sp. (TC5). Description: Anti-adhesion test, strain TC5. It is filed as cell-based. The note with it: for activity at 200 µM: 15 h; for EC50: read-out: EC50 (effective concentration to inhibit 50% of the adhesion). Here is the method:
as §2
Polaribacter sp. (TC5) was isolated in June 2010 in the Military Harbor of Toulon (Mediterranean Sea, France) as described in F. Brian-Jaisson, A. Ortalo-Magné, L. Guentas-Dombrowsky, F. Armougom, Y. Blache, M. Molmeret, Microb. Ecol., 2014, 68, 94-110.

For test [4], the system named is Shewanella sp. (TC11). As to the kind of experiment: Anti-adhesion test, strain TC11. The class given is cell-based. As to conditions: for activity at 200 µM: 15 h, strain TC11, read-out: % of adhesion at 200 μM, TC11; for EC50: read-out: EC50 (effective concentration to inhibit 50% of the adhesion), strain TC11. Here is the method: as §2
Shewanella sp. (TC11) was isolated in June 2010 in the Military Harbor of Toulon (Mediterranean Sea, France) as described in F. Brian-Jaisson, A. Ortalo-Magné, L. Guentas-Dombrowsky, F. Armougom, Y. Blache, M. Molmeret, Microb. Ecol., 2014, 68, 94-110.

Test [5] in a line: Gravimetry (weight loss), corrosion inhibition. As to conditions: mild steel in 1N HCl. The method, then: The corrosion rates were determined by electrochemical impedance spectroscopy measurements and gravimetry.
Weight loss measurements were performed on 2.5×2.0×0.1 cm rectangular mild steel coupons. The mild steel coupons were immersed into non-de-aerated HCl 1N solution in absence and presence of different concentrations of compounds of general formula (I). After the elapsed time, the coupons were taken out, washed, dried and weighed accurately. Experiments were duplicated.
Weight loss experiments were done to confirm the corrosion inhibitive properties of AS164.
The inhibition efficiency, IE (%), was estimated from the weight loss experiments using the following equation:
[formula] wherein CR^o and CR are respectively the corrosion rate in the absence and presence of AS164.

Test [6] relates to Pseudoalteromonas ulvae (TC14). As to the kind of experiment: Anti-adhesion test, strain TC14. The class given is cell-based. The note with it: Pseudoalteromonas ulvae; for activity at 200 µM: 15 h; for EC50: read-out: EC50 (effective concentration to inhibit 50% of the adhesion). Here is the method: as §2
Pseudoalteromonas ulvae (TC14) was isolated in June 2010 in the Military Harbor of Toulon (Mediterranean Sea, France) as described in F. Brian-Jaisson, A. Ortalo-Magné, L. Guentas-Dombrowsky, F. Armougom, Y. Blache, M. Molmeret, Microb. Ecol., 2014, 68, 94-110.

In the case of `CN(C)CCCOc1ccc(CCn2cc(-c3ccc(-c4cn(CCc5ccc(OCCCN(C)C)c(I)c5)nn4)cc3)nn2)cc1I` [SA46, 3-(4-(2-(4-(4-(1-(4-(3-(dimethylamino)propoxy)-3-iodophenethyl)-1H-1,2,3-triazol-4-yl)phenyl)-1H-1,2,3-triazol-1-yl)ethyl)-2-iodophenoxy)-N,N-dimethylpropan-1-amine], the activity at 200 µM in test [1] came out at 17.4 ± 14.3%; in test [2], 26.6 ± 3.4%; in test [3] it was 22.4 ± 14.7%; in test [4], 5.8 ± 1.2%; in test [6], 30.2 ± 3.5%. Besides, the EC50 in test [1] is 71.5 ± 4.1 µM; in test [2] it was 48.3 ± 48.9 µM; in test [3], 70.6 ± 8.9 µM; in test [4], 22.2 ± 13.6 µM; in test [6], 74.4 ± 8.3 µM. In addition, the IE % in test [5] (0.1 ppm) was 82.23%; in test [5] (0.3 ppm) it was 90.47%; in test [5] (0.5 ppm), 94.51%; in test [5] (2 ppm), 96.05%; in test [5] (10 ppm), 94.96%.
Turning to `CN(C)CCOc1ccc(CCn2cc(CCCCc3cn(CCc4ccc(OCCN(C)C)c(Br)c4)nn3)nn2)cc1Br` [AS159, 2-(4-(2-(4-(4-(1-(4-(2-(dimethylamino)ethoxy)-3-bromophenethyl)-1H-1,2,3-triazol-4-yl)butyl)-1H-1,2,3-triazol-1-yl)ethyl)-2-bromophenoxy)-N,N-dimethylethanamine], the values for the activity at 200 µM in test [1], in test [2] and in test [6] were 58.4 ± 4.3%, 57.4 ± 1.6% and 61.5 ± 1%, respectively. The IE % in test [5] (0.1 ppm) came out at 39.96%; in test [5] (0.3 ppm), 89.62%; in test [5] (0.5 ppm) it was 91.95%; in test [5] (2 ppm), 95.63%; in test [5] (10 ppm), 97.30%.
On to `CN(C)CCCOc1ccc(CCn2cc(COCc3cn(CCc4ccc(OCCCN(C)C)c(Br)c4)nn3)nn2)cc1Br` [AS173, 3-(4-(2-(4-(((1-(4-(3-(dimethylamino)propoxy)-3-bromophenethyl)-1H-1,2,3-triazol-4-yl)methoxy)methyl)-1H-1,2,3-triazol-1-yl)ethyl)-2-bromophenoxy)-N,N-dimethylpropan-1-amine], for which the activity at 200 µM was 51.6 ± 1% in test [1], 53.7 ± 4% in test [2] and 41.7 ± 1.6% in test [6]. Further, the IE % in test [5] (0.1 ppm) is 46.78%; in test [5] (0.3 ppm), 86.70%; in test [5] (0.5 ppm), 92.47%; in test [5] (2 ppm), 95.77%; in test [5] (10 ppm), 97.95%. The EC50 in test [6] was found to be 122 ± 59.1 µM.
Turning to `Oc1ccc(CCn2cc(COCc3cn(CCc4ccc(O)c(Br)c4)nn3)nn2)cc1Br` [NT26], the activity at 200 µM in test [1] was determined as 50.3 ± 5.79%; in test [2], 47.8 ± 0.1%; in test [6], 40.2 ± 3.3%. For the same compound, the EC50 in test [1] turned out to be 195 ± 10.7 µM; in test [2], 198 ± 4.1 µM; in test [6], 127 ± 27.5 µM.
As for `CN(C)CCOc1ccc(CCn2cc(CCCc3cn(CCc4ccc(OCCN(C)C)c(Br)c4)nn3)nn2)cc1Br` [AS158], the activity at 200 µM in test [1] came out at 57 ± 2.2%; in test [2], 51.5 ± 3%; in test [6], 55.8 ± 3.8%. Further, the IE % in test [5] (0.1 ppm) worked out at 53.41%; in test [5] (0.3 ppm), 87.00%; in test [5] (0.5 ppm), 91.72%; in test [5] (2 ppm), 95.98%; in test [5] (10 ppm), 97.17%.
With `CN(C)CCOc1ccc(CCn2cc(CCCCCCc3cn(CCc4ccc(OCCN(C)C)c(Br)c4)nn3)nn2)cc1Br` [AS160, 2-(4-(2-(4-(6-(1-(4-(2-(dimethylamino)ethoxy)-3-bromophenethyl)-1H-1,2,3-triazol-4-yl)hexyl)-1H-1,2,3-triazol-1-yl)ethyl)-2-bromophenoxy)-N,N-dimethylethanamine], the activity at 200 µM in test [1] is 54.3 ± 10.8%; in test [2], 59.5 ± 2.2%; in test [6], 67.4 ± 4%. The IE % is recorded as 71.40% in test [5] (0.1 ppm); 92.14% in test [5] (0.3 ppm); 92.66% in test [5] (0.5 ppm); 96.06% in test [5] (2 ppm); 97.03% in test [5] (10 ppm).
Turning to `COc1ccc(CCn2cc(CNCc3cn(CCc4ccc(OC)c(Br)c4)nn3)nn2)cc1Br` [NT7, bis((1-(3-bromo-4-methoxyphenethyl)-1H-1,2,3-triazol-4-yl)methyl)amine], the activity at 200 µM was 48.2 ± 2.1% in test [1], 46.3 ± 2.7% in test [2] and 37.4 ± 0.1% in test [6]. Moreover, the EC50 in test [1] stood at 188 ± 3 µM; in test [2], 194 ± 8 µM; in test [6] it was 138 ± 8.7 µM.
Turning to `COc1ccc(CCn2cc(CCCCc3cn(CCc4ccc(OC)c(Br)c4)nn3)nn2)cc1Br` [NT3, 1-(3-bromo-4-methoxyphenethyl)-4-(4-(1-(3-bromo-4-methoxyphenethyl)-1H-1,2,3-triazol-4-yl)butyl)-1H-1,2,3-triazole], the activity at 200 µM is 56.9 ± 1.7% in test [1], 50.9 ± 0.3% in test [2] and 53.3 ± 6.3% in test [6].
The matching figures for `Oc1ccc(CCn2cc(CCCc3cn(CCc4ccc(O)c(Br)c4)nn3)nn2)cc1Br` [NT21, 4-(2-(4-(3-(1-(3-bromo-4-hydroxyphenethyl)-1H-1,2,3-triazol-4-yl)propyl)-1H-1,2,3-triazol-1-yl)ethyl)-2-bromophenol]: 63%, 83.4 ± 3.9% and 53 ± 4%.
Turning to `COc1ccc(CCn2cc(CCCc3cn(CCc4ccc(OC)c(Br)c4)nn3)nn2)cc1Br` [NT10, 1-(3-bromo-4-methoxyphenethyl)-4-(3-(1-(3-bromo-4-methoxyphenethyl)-1H-1,2,3-triazol-4-yl)propyl)-1H-1,2,3-triazole], the activity at 200 µM in test [1] was determined as 50 ± 4.9%; in test [2] it was 49.2 ± 0.8%; in test [6] it was 50.4 ± 2.2%. Besides, the EC50 in test [2] turned out to be 182 ± 15.2 µM.
Consider `CN(C)CCCOc1ccc(CCn2cc(CNCc3cn(CCc4ccc(OCCCN(C)C)c(Br)c4)nn3)nn2)cc1Br` [AS174], for which the activity at 200 µM came out at 55.4 ± 0.4% in test [1], 56.3 ± 2.4% in test [2] and 45 ± 0.8% in test [6]. In test [1], the EC50 was found to be 185 ± 16.2 µM. In addition, the IE % in test [5] (0.1 ppm) is 53.41%; in test [5] (0.3 ppm) it was 87.00%; in test [5] (0.5 ppm), 91.72%; in test [5] (2 ppm), 95.98%; in test [5] (10 ppm) it was 97.17%.
On to `COc1ccc(Cn2cc(-c3ccc(-c4cn(Cc5ccc(OC)c(Br)c5)nn4)cc3)nn2)cc1Br` [SA8, 1-(3-bromo-4-methoxybenzyl)-4-(4-(1-(3-bromo-4-methoxybenzyl)-1H-1,2,3-triazol-4-yl)phenyl)-1H-1,2,3-triazole], for which the activity at 200 µM in test [1] worked out at 24.1 ± 2.6%; in test [2] it was 33.1 ± 4.4%; in test [3], 38.3 ± 0.1%; in test [4], 16.4 ± 8%; in test [6] it was 23.3 ± 3.8%. For the same compound, the EC50 worked out at 159 ± 28.5 µM in test [1]; 163 ± 23.6 µM in test [2]; 152 ± 6.7 µM in test [3]; 122 ± 7.1 µM in test [4]; 99.5 ± 4.5 µM in test [6].
